Results on 8 molecules are retold here after PubChem BioAssay (NCI).

Test systems include A549 NSCLC; DU-145 prostate; HOP-92 NSCLC; HS 578T breast; K-562 leukemia; M14 melanoma; MDA-MB-231 breast; MOLT-4 leukemia; NCI-H23 lung; NCI-H522 lung; OVCAR-5 ovarian; SF-295 CNS; SK-MEL-5 melanoma; SK-OV-3 ovarian; SNB-19 CNS; T-47D breast; UACC-62 melanoma; HCC-2998 colon.
What all share (assay): NCI anticancer screen, dose series, 48 h

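1) Cells in 96-well plates. 2) Compound, 48 h, 5 concentrations. 3) Linear interpolation between surrounding doses. 4) Unreached endpoint = highest concentration. TGI marks complete inhibition of growth.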 Some results are limits rather than exact numbers.

For the molecule `CN(C)C=Nc1cccc2cnccc12`, the TGI with A549 NSCLC, with DU-145 prostate, in the experiment on HOP-92 NSCLC, in the experiment on HS 578T breast, in the experiment with K-562 leukemia and with M14 melanoma was more than 100 µM in each case. Besides, the TGI in the experiment on MDA-MB-231 breast, in the experiment with MOLT-4 leukemia, in the experiment with NCI-H23 lung, with NCI-H522 lung, in the experiment with OVCAR-5 ovarian and in the experiment with SF-295 CNS was more than 100 µM throughout. Moreover, the TGI with SK-MEL-5 melanoma, in the experiment with SK-OV-3 ovarian, in the experiment with SNB-19 CNS, in the experiment with T-47D breast and in the experiment with UACC-62 melanoma was more than 100 µM throughout.

Turning to `Cc1ccc(-n2c(Cn3nnc(-c4cccnc4)n3)nn(C3OC(COC(=O)c4ccccc4)C(OC(=O)c4ccccc4)C3OC(=O)c3ccccc3)c2=S)cc1` (configuration not stated), the TGI in the experiment with A549 NSCLC, in the experiment with DU-145 prostate, in the experiment with HCC-2998 colon, in the experiment on HS 578T breast, in the experiment with K-562 leukemia and in the experiment with M14 melanoma was more than 100 µM each time. The TGI with MDA-MB-231 breast, in the experiment with MOLT-4 leukemia, in the experiment on NCI-H23 lung, in the experiment on NCI-H522 lung, in the experiment with OVCAR-5 ovarian and in the experiment with SF-295 CNS was more than 100 µM throughout. Besides, the TGI in the experiment on SK-MEL-5 melanoma, in the experiment with SK-OV-3 ovarian, in the experiment with SNB-19 CNS, in the experiment on T-47D breast and in the experiment on UACC-62 melanoma was more than 100 µM each time.

With `CCOC(=O)c1cc(C2CCN(Cc3ccccc3)C2=O)c(C(=O)C(=[N+]=[N-])C(C)=O)[nH]1` (configuration not stated), the TGI in the experiment with A549 NSCLC, with DU-145 prostate, with HCC-2998 colon, in the experiment on HOP-92 NSCLC, with HS 578T breast and with K-562 leukemia was more than 100 µM in each case. Also, the TGI in the experiment on M14 melanoma, with MDA-MB-231 breast, with MOLT-4 leukemia, with NCI-H23 lung, with OVCAR-5 ovarian and in the experiment on SF-295 CNS was more than 100 µM each time. For the same molecule, the TGI in the experiment with SK-MEL-5 melanoma, in the experiment with SK-OV-3 ovarian, with SNB-19 CNS, in the experiment on T-47D breast and in the experiment on UACC-62 melanoma was more than 100 µM in each case.

Turning to `O=C(OCC12CC3CC(CC(C3)C1)C2)c1ccc(NCc2cc(O)ccc2O)cc1`, the TGI in the experiment on A549 NSCLC was 12.6 µM; with DU-145 prostate, 18.7 µM; with HCC-2998 colon it was 4.02 µM; in the experiment on HOP-92 NSCLC, 17.6 µM; in the experiment on HS 578T breast, 12.1 µM; in the experiment on K-562 leukemia, more than 49.2 µM. The TGI amounted to 5.77 µM in the experiment on M14 melanoma; 11.6 µM in the experiment with MDA-MB-231 breast; 3.88 µM in the experiment with NCI-H23 lung; 0.854 µM in the experiment with NCI-H522 lung; 4.71 µM in the experiment on OVCAR-5 ovarian; 17.7 µM in the experiment on SF-295 CNS. The TGI in the experiment with SK-MEL-5 melanoma was found to be 2.9 µM; in the experiment with SK-OV-3 ovarian, 20.4 µM; in the experiment on SNB-19 CNS, 11 µM; in the experiment with T-47D breast it was 2.06 µM; with UACC-62 melanoma, 3.93 µM.

For the molecule `O=C1CC(=O)c2c(Cl)sc(Cl)c21`, the TGI in the experiment on A549 NSCLC is more than 100 µM; in the experiment with DU-145 prostate it was more than 100 µM; with HOP-92 NSCLC, more than 100 µM; in the experiment on HS 578T breast it was 93.9 µM; with K-562 leukemia, more than 100 µM; with M14 melanoma, more than 100 µM. The TGI is more than 100 µM with MDA-MB-231 breast; more than 100 µM in the experiment on MOLT-4 leukemia; more than 100 µM with NCI-H23 lung; 47.1 µM in the experiment with NCI-H522 lung; more than 100 µM in the experiment with OVCAR-5 ovarian; more than 100 µM in the experiment on SF-295 CNS. Also, the TGI with SK-MEL-5 melanoma, with SK-OV-3 ovarian, in the experiment with T-47D breast and with UACC-62 melanoma was more than 100 µM throughout.

Take `CC(=O)O[C@H]1CC[C@@]2(C)C(=CC[C@@H]3[C@@H]2CC[C@]2(C)C(=N/O)/C(=C/c4ccc([N+](=O)[O-])cc4)C[C@@H]32)C1`: the TGI with A549 NSCLC was more than 100 µM; in the experiment on DU-145 prostate it was 31.4 µM; in the experiment on HOP-92 NSCLC it was 62 µM; with HS 578T breast it was 8.46 µM; in the experiment with K-562 leukemia, more than 100 µM; in the experiment on M14 melanoma, 47.7 µM. Moreover, the TGI is 50.1 µM in the experiment with MDA-MB-231 breast; more than 100 µM in the experiment with MOLT-4 leukemia; 13.2 µM with NCI-H23 lung; 8.94 µM in the experiment with NCI-H522 lung; 20.7 µM with SF-295 CNS; 7.95 µM in the experiment on SK-MEL-5 melanoma. Further, the TGI was more than 100 µM in the experiment on SK-OV-3 ovarian, 37.1 µM with SNB-19 CNS, 2.46 µM in the experiment with T-47D breast and 20.5 µM with UACC-62 melanoma.

For the molecule `COC(=O)/C=C1/N=C(N(C)/N=C/c2ccccc2)NC1=O`, the TGI with A549 NSCLC, in the experiment with DU-145 prostate, with HCC-2998 colon, in the experiment with HS 578T breast, with K-562 leukemia and in the experiment on M14 melanoma was more than 100 µM in each case. For the same molecule, the TGI in the experiment with MDA-MB-231 breast, in the experiment with MOLT-4 leukemia, in the experiment with NCI-H23 lung, in the experiment with NCI-H522 lung, in the experiment on OVCAR-5 ovarian and in the experiment on SF-295 CNS was more than 100 µM in each case. Also, the TGI with SK-MEL-5 melanoma, in the experiment with SK-OV-3 ovarian, in the experiment on SNB-19 CNS, in the experiment with T-47D breast and in the experiment with UACC-62 melanoma was more than 100 µM throughout.

Consider `CCCCNC(=O)Nc1c(C(N)=O)c2n(c1C(=O)OCC)CCCCC2`, for which the TGI in the experiment with DU-145 prostate, with HCC-2998 colon, in the experiment with HOP-92 NSCLC, in the experiment with HS 578T breast, in the experiment on K-562 leukemia and in the experiment with M14 melanoma was more than 100 µM in each case. Also, the TGI in the experiment with MDA-MB-231 breast is 58.4 µM; with MOLT-4 leukemia, more than 100 µM; in the experiment on NCI-H23 lung, more than 100 µM; in the experiment on SF-295 CNS, more than 100 µM; in the experiment on SK-MEL-5 melanoma it was more than 100 µM; with SK-OV-3 ovarian, more than 100 µM. The TGI in the experiment on SNB-19 CNS, in the experiment on T-47D breast and in the experiment on UACC-62 melanoma was more than 100 µM in each case.
